melting point [°C]	SMILES
194 to 196	CCS(=O)(=O)NCc1ccc(C(=O)O)cc1
61 to 63	O=Cc1cscn1
57 to 59	CC(=O)CC(=O)NCCc1ccccc1
255 to 257	Cc1nc(-c2ccc(Cl)s2)sc1C(=O)O
167 to 169	CC(NC(N)=O)C1CC2CCC1C2 (stereo not drawn)
70 to 72	N#Cc1ccccc1OCc1ccccc1
135 to 137	COC(=O)c1cc(S(=O)(=O)Cl)c(Br)cc1Cl
98 to 100	COc1cc(C)c(S(=O)(=O)Cl)cc1C
86 to 88	C=C(C)CNC(=S)NN
147 to 149	CNc1nc(C)cc(C)c1C#N
131 to 133	Clc1ccc(N2CCOCC2)nn1
74 to 76	CC(=O)c1c(C)nn(C(C)C)c1C
246 to 248	COc1ccc(C(=O)O)cc1N1CCNC1=O
159 to 161	O=C1CCCN1c1ccc(O)cc1
223 to 225	O=Cc1cn(-c2ccccc2)nc1-c1cc2ccccc2oc1=O
146 to 148	NCc1ccc(C(N)=O)nc1
132 to 134	O=C(O)c1nnn(-c2ccccc2)c1C(F)(F)F
109 to 111	C=CCn1c(S)nc2ccccc21
250 to 252	Cn1c(=O)cc(C(=O)O)c2ccccc21
68 to 70	COCCOc1ccc(Cl)cc1C(=O)O
179 to 181	CCn1cc(S(N)(=O)=O)nc1C
219 to 221	CC1C=CC(C(=O)O)C2C(=O)N(c3ccccc3)C(=O)C12 (stereo not drawn)
143 to 145	Cn1c(=O)c2c(S)nc(C(C)(C)C)nc2n(C)c1=O

melting point [°C]	SMILES
209 to 211	Clc1cc(Cl)cc(-c2nnc3ccc(Cl)nn23)c1
199 to 201	CC(=O)Nc1ccc(N=C=S)cc1
174 to 176	CC(C)CNS(=O)(=O)c1ccc(Br)c(C(=O)O)c1
280 to 282	N#Cc1cc(C#N)c(S)nc1N
109 to 111	O=C(O)C1CC(=O)N(Cc2cccc(C(F)(F)F)c2)C1 (stereo not drawn)
92 to 94	CC1C(=O)NC1c1ccccc1 (stereo not drawn)
138 to 140	Nc1cnc2ccccc2n1
85 to 87	N#Cc1ccc(OCCO)cc1
61 to 63	CC1(C)CC(NC(=O)CCl)CC(C)(C)N1
53 to 55	Cn1cc(CNc2ccccc2C(F)(F)F)cn1
117 to 119	Cc1sc(N=CN(C)C)c(C#N)c1C
135 to 137	C=CC(=O)Nc1cc(N)ccc1F
112 to 114	Nc1ccc(Sc2nncs2)c(Cl)c1
< 17	CCn1c(C)cc(C(=O)O)c1C
79 to 81	Cn1cccc1-c1csc(N)n1
142 to 144	O=C(O)c1ccc(O)c(-c2ccccc2)c1
264 to 266	NC(Cc1ccccc1)(C(=O)O)c1ccccc1 (stereo not drawn)
173 to 175	O=C(O)c1ccc(-c2ccccc2F)o1
171 to 173	Cc1ccc(S(=O)(=O)NC(CCC(N)=O)C(=O)O)cc1C (stereo not drawn)
83 to 85	CCC(CC(=O)O)c1ccc(OC)cc1 (stereo not drawn)
66 to 68	CCCCCNC1=NCC(c2ccccc2)S1 (stereo not drawn)
124 to 126	COCCOc1ccc(/C(C)=N\O)cc1OC
125 to 127	O=C(CCl)NCc1ccccc1CN1CCCC1=O

melting point [°C]	SMILES
184 to 186	O=C(O)CNCCO
204 to 206	CC1C=CC2C(=O)N(Cc3ccccc3)C(=O)C2C1C(=O)O (stereo not drawn)
149 to 151	O=C(O)CN(Cc1ccccc1)S(=O)(=O)c1ccc(Cl)cc1
261 to 263	O=C(O)CNc1nccs1
221 to 223	N#Cc1ccc(OCc2cccc(C(=O)O)c2)cc1
170 to 172	O=C(O)C1(c2ccc(O)cc2)CCOCC1
147 to 149	C=CCNC(=O)c1nc(C(=O)O)cs1
236 to 238	Cc1c(C(=O)O)oc2c(F)cccc12
56 to 58	Cc1cc(C)c(N)c(Cl)n1
136 to 138	CCCc1ccc(N2CC(C(=O)O)CC2=O)cc1 (stereo not drawn)
131 to 133	CCN(CC)S(=O)(=O)c1ccc(N2CCNCC2)c([N+](=O)[O-])c1
85 to 87	CN1CCN(C(=O)C2CCCNC2)CC1 (stereo not drawn)
156 to 158	Cc1c(C(=O)C(=O)O)sc2ccccc12
231 to 233	NS(=O)(=O)c1ccc(Br)c(C(=O)O)c1
318 to 320	O=C(O)c1cc2ccccc2c(=O)[nH]1
80 to 82	NC(=S)C1CCCO1 (stereo not drawn)
159 to 161	Cc1nn(-c2ncccn2)c(N)c1Br
173 to 175	O=C(O)c1nnn(-c2ccc(F)cc2)c1C1CC1
159 to 161	COc1cc2ccncc2cc1O
234 to 236	COc1ccc(-c2cc(C(=O)O)c3ccccc3n2)cc1OC
141 to 143	O=C(COc1cccc2ccccc12)N1CCNCC1
68 to 72	COC(=O)c1ccccc1-c1ccc(C=O)o1
150 to 154	Cc1noc(N)c1C(=O)O

melting point [°C]	SMILES
113 to 115	Cc1cc(Cl)cc2cc(C#N)oc12
141 to 143	NC(=O)C1COc2ccccc2O1 (stereo not drawn)
125 to 127	Cc1ccc(CN2CCOCC2)cc1N
165 to 167	COC(=O)CCSc1ccc([N+](=O)[O-])cc1C(=O)O
289 to 291	Cc1[nH]c2ccc(Oc3ccccc3)cc2c(=O)c1C
84 to 86	CC(=O)c1cccc(N2CCCS2(=O)=O)c1
172 to 174	O=C(O)C1CC(=O)N(c2ccc3c(c2)OCO3)C1 (stereo not drawn)
83 to 85	CCOC(=O)c1cnc2c(cnn2C)c1Cl
266 to 268	Nc1nnc(-c2cc3c(s2)CCCC3)o1
153 to 155	NNC(=S)NCC(N)=O
120 to 122	CCc1ccc(C(=O)Nc2ccc(N)cc2Cl)s1
205 to 207	O=C(O)c1sc2cc(C(F)(F)F)ccc2c1Cl
63 to 65	c1ccc(Cn2ccnc2)nc1
229 to 231	CC(=O)N1CCN(Cc2ccc(C(=O)O)cc2)CC1
167 to 169	Nc1nnc(Cc2ccccc2F)o1
145 to 147	O=C(O)Cc1ccc(C(F)(F)F)cc1[N+](=O)[O-]
188 to 190	CC(C)(C)OC(=O)NC1CCN(c2ccc(C#N)cn2)CC1
119 to 121	O=C(CCl)N1CCN(S(=O)(=O)c2c(F)cccc2F)CC1
28 to 30	Cc1ccc2c(c1)C(=O)CCC2
77 to 79	Fc1cc(CCl)c2c(c1)COC(c1ccsc1)O2 (stereo not drawn)
89 to 91	CN(C)C(=O)COc1ccccc1C=O
53 to 55	Fc1cccc(Cn2cc(Br)cn2)c1F
110 to 112	NC(=O)NCC(F)(F)F

melting point [°C]	SMILES
167 to 169	CC(C)(C)OC(=O)NC1CN(c2ccccc2)C1=O (stereo not drawn)
129 to 131	CS(=O)(=O)Cc1c(N)cccc1F
214 to 216	O=C(Nc1ccc(F)cc1)Nc1cccc(O)c1
89 to 91	O=C(O)C1CC1c1cccc(Cl)c1 (stereo not drawn)
169 to 171	Cc1n[nH]c(C)c1CCC(=O)O
36 to 38	CCCOc1ccc(C=O)cc1OCC
155 to 157	Nc1c(NCCCO)c(=O)[nH]c(=O)n1Cc1ccccc1
89 to 91	CC(O)(C(=O)O)c1ccc(F)cc1 (stereo not drawn)
89 to 91	COC(=O)c1cc(-c2cccs2)ccc1N
74 to 76	Nc1cc2c(cc1Sc1ccccc1)OCCO2
185 to 187	O=C(O)CCc1nc2c(F)cccc2[nH]1
35 to 37	CN(Cc1cnn(C)c1)C(=O)CCl
103 to 105	O=C(O)C(Oc1ccccc1)c1ccccc1 (stereo not drawn)
219 to 221	COc1ccnc(NCc2cccc(C(=O)O)c2)n1
246 to 248	O=Cc1c(-c2ccccc2)n(-c2ccccc2)c2ccccc12
164 to 166	Nc1nc2ccccc2n1-c1ccc(F)cc1
228 to 230	NC(=S)NC1CCOCC1
132 to 136	CCCC1NC(=O)NC1=O (stereo not drawn)
99 to 101	OC1CCCC1N1CCN(c2cccc(Cl)c2)CC1 (stereo not drawn)
75 to 77	Cc1nc(Cl)cc(-c2ccccn2)n1
134 to 136	N#CCS(=O)(=O)c1cc(Br)ccc1Br
149 to 151	COc1cc(N)c(O)cc1[N+](=O)[O-]
93 to 95	COc1ccc(C(C)=O)cc1CS(=O)CC(=O)O (stereo not drawn)

melting point [°C]	SMILES
183 to 187	O=C(O)C1=NC=CN2CCS(=O)(=O)N=C12
54 to 56	CC(CO)NCc1ccccc1Cl (stereo not drawn)
149 to 151	COc1cc(C(=O)O)c([N+](=O)[O-])cc1OCC#N
181 to 183	NC(=O)c1c(NC(=O)CCl)sc2c1CCC2
108 to 110	O=C(O)COc1cccc(Br)c1
92 to 94	CCOC(O)=C1Nc2ccccc2C1=O
72 to 74	Cc1ccc(C2CCCCC2O)cc1 (stereo not drawn)
199 to 201	NS(=O)(=O)c1cncc(Br)c1
179 to 181	Cn1c(CO)nc2cc(Cl)ccc21
92 to 94	O=C(c1ccc(Cl)cc1)c1ccsc1
61 to 63	Cc1ccccc1COc1cccc(N)c1
177 to 179	O=C(O)c1cccnc1Oc1ccc(Br)cc1
112 to 114	NC1CC(=O)N(c2ccc(Oc3ccccc3)cc2)C1 (stereo not drawn)
79 to 81	O=C(O)CCCCCCN1C(=O)C=CC1=O
129 to 131	CC(C)S(=O)(=O)c1ccc(Cl)c(C(=O)O)c1
165 to 167	O=C(O)CN1C(=O)NC2(CCCC2)C1=O
258 to 260	NC(=S)c1ccnc(-n2cncn2)c1
153 to 155	CCCn1c(N)c(NCCN2CCOCC2)c(=O)[nH]c1=O
129 to 131	NCCCN1C(=O)NC2(CCCC2)C1=O
134 to 136	COc1cc(C(C)=O)ccc1S(=O)(=O)C(F)F
153 to 155	C#CCN1C(=O)C(=O)c2ccccc21
107 to 109	O=C1CC(c2ccccc2)N1 (stereo not drawn)
180 to 182	COc1ccc(S(=O)(=O)N2CCOCC2)cc1NC(=O)CCl

SMILES	melting point [°C]
CCc1nc2ccccc2n1C1CCNCC1	99 to 101
COc1ccc(CCl)cc1Br	45 to 51
FC(F)(F)c1ccc2sc(C3CCNCC3)nc2c1	71 to 73
COc1cc(Cl)c(C)cc1N	102 to 103
ClCc1cnc(Cl)s1	31 to 33
